Source: patent US10077288B2, “Hydroxystatin derivatives for the treatment of arthrosis” (Merck Patent GmbH, priority 2012, dated 2018)

Columns and labels:
[1] = biological target: T1, cathepsin D isolated from the human liver (Homo sapiens, UniProt P07339); test: In-vitro fluorescence assay for identification of cathepsin D inhibitors; format: biochemical; details: human liver cathepsin D 1.4 nM, pH 5.5; read-out: CatD assay IC50-(M)
T1 construct: cathepsin D isolated from the human liver (Sigma-Aldrich); purchased Sigma-Aldrich; host or cells: human liver (tissue-derived, not recombinant)
T1 sequence (P07339 65-161 limits assumed): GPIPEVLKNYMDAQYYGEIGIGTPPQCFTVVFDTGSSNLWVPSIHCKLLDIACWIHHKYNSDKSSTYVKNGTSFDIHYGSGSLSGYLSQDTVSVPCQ
T1 sequence (P07339 169-412 limits assumed): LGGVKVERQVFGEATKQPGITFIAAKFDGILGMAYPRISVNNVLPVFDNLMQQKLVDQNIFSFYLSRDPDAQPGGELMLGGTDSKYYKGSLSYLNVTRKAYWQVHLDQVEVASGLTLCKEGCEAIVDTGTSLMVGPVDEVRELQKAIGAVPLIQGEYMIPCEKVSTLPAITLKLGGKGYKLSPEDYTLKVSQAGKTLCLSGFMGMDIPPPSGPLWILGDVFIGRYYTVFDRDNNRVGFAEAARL
Method: EXAMPLE 4: IN-VITRO FLUORESCENCE ASSAY FOR IDENTIFICATION OF CATHEPSIN D INHIBITORS
In order to identify modulators of cathepsin D activity, a continuous enzymatic test was carried out with a synthetic peptide which carries a fluorescent group (MCA=(7-methoxycoumarin-4-yl)acetyl) which is quenched by energy transfer from a Dpn (2,4 dinitrophenyl) group on the same molecule, in Greiner 384-well nb microtitre plates. Cleavage of the peptidic substrate by cathepsin D causes an increase in the fluorescence intensity. In order to determine the efficacy of substances, the time-dependent increase in the fluorescence intensity in the presence of the substance was compared with the time-dependent increase in fluorescence in the absence of substances. The reference substance used was pepstatin A (Sigma-Aldrich). The substrate used was MCA-GKPILFFRLK(Dnp)d-R—NH2 (Enzo Life Sciences, Lörrach). The enzyme employed was cathepsin D isolated from the human liver (Sigma-Aldrich) in a final concentration of 1.4 nM. The test was carried out in 100 mM sodium acetate buffer, 1.25% (v/v) of DMSO, 0.25% (w/v) of Chaps, pH 5.5. 2 μl of each substance solution with serially diluted substance concentration were added to in each case 4 μl of cathepsin D solution and incubated at room temperature for 10 min. The reaction was started by addition of 2 μl of substrate solution (final concentration 5 μM). After carrying out a starting-point fluorescence measurement (excitation wavelength 340 nm/emission wavelength 450 nm) using an Envision multilabel reader (Perkin Elmer), the reaction was incubated at room temperature for 60 min. The amount of peptide fragment cleaved off during the reaction time was subsequently measured by determination of the increase in the fluorescence intensity at 450 nm (excitation wavelength 340 nm).

recombinant human renin = biological target: T2, recombinant human renin (Homo sapiens, UniProt P00797); test: In-vitro fluorescence assay for identification of renin-inhibitory activity; format: biochemical; details: recombinant human renin 10 nM, FRET substrate 5 μM, pH 7.2; read-out: Renin selectivity IC50
T2 construct: purchased Proteos, Kalamazoo, Mich
T2 sequence (P00797 67-406): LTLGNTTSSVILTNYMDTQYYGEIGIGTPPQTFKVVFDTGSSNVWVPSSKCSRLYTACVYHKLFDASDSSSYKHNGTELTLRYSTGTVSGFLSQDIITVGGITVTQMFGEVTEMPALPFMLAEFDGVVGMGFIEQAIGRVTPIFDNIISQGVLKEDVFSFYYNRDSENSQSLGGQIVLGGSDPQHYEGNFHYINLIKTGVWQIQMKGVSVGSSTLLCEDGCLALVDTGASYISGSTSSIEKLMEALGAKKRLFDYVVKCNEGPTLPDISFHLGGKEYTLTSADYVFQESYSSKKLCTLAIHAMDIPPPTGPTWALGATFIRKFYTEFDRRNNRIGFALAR
Method: EXAMPLE 8: IN-VITRO FLUORESCENCE ASSAY FOR IDENTIFICATION OF RENIN-INHIBITORY ACTIVITY
In order to identify modulators of renin activity, a continuous enzymatic test was carried out with a synthetic peptide which carries a fluorescent group Edans (=(5-(aminoethyl)aminonaphthalenesulfonate) which is quenched by energy transfer from a Dabcyl (4′-dimethylaminoazobenzene-4-carboxylate) group on the same molecule, in Greiner 384-well microtitre plates. Cleavage of the peptidic substrate by renin causes an increase in the fluorescence intensity. In order to determine the efficacy of substances, the time-dependent increase in the fluorescence intensity in the presence of the substance was compared with the time-dependent increase in fluorescence in the absence of substances. The reference substance used was renin inhibitor 2 (Z-Arg-Arg-Pro-Phe-His-Sta-Ile-His N-Boc-Lys methyl ester Z) (Sigma-Aldrich). The substrate used was renin FRET substrate I (DABCYL-g-Abu-Ile-His-Pro-Phe-His-Leu-Val-Ile-His-Thr-EDANS) (Anaspec, Fremont Calif.). The enzyme employed was recombinant human renin (Pro-teos, Kalamazoo, Mich.) in a final concentration of 10 nM. The test was carried out in 50 mM Mops buffer, 1.5% (v/v) of DMSO, 0.1% (w/v) of Igepal®, pH 7.2, 0.5% (w/v) of BSA. 2 μl of each substance solution with serially diluted substance concentration were added to in each case 4 μl of renin solution and incubated at room temperature for 15 min. The reaction was started by addition of 4 μl of substrate solution (final concentration 5 μM). After carrying out a starting-point fluorescence measurement (excitation wavelength 340 nm/emission wavelength 495 nm) using an Envision multilabel reader (Perkin Elmer), the reaction was incubated at 37° C. for 60 min. The amount of peptide fragment cleaved off during the reaction time was subsequently measured by determination of the increase in the fluorescence intensity at 495 nm (excitation wavelength 340 nm).
Result: all compounds measured have an IC50 of the renin selectivity of >30 μM (see Table 2 in Example 1).

IC50 [1] | IC50 (recombinant human renin) | Structure (SMILES)
7.9e-08 M | > 30000 nM | CC[C@H](C)[C@H](NC(=O)C[C@H](O)[C@H](Cc1ccccc1)NC(=O)[C@@H](NC(=O)CCc1ccccc1)C(C)C)C(=O)N[C@H](C(=O)OCc1ccccc1)C(C)C [Compound 1, benzly (S)-2-((2S,3S)-2-{(3S,4S)-3-hydroxy-4-[(S)-3-methyl-2-(3-phenylpropionylamino)butyrylamino]-5-phenylpentanoylamino}-3-methylpentanoylamino)-3-methylbutyrate]
2.3e-07 M | > 30000 nM | CC[C@H](C)[C@H](NC(=O)C[C@H](O)[C@H](Cc1ccccc1)NC(=O)[C@@H](NC(=O)C(C)(C)Oc1ccc2ccccc2c1)C(C)C)C(=O)N[C@H](C(=O)OCc1ccccc1)C(C)C [Compound 3, benzly (S)-2-[(2S,3S)-2-((3S,4S)-3-hydroxy-4-{(S)-3-methyl-2-[2-methyl-2-(naphthalen-2-yloxy)propionylamino]butyrylamino}-5-phenylpentanoylamino)-3-methylpentanoylamino]-3-methylbutyrate]
3.9e-08 M | > 30000 nM | CC[C@H](C)[C@H](NC(=O)C[C@H](O)[C@H](Cc1ccccc1)NC(=O)[C@@H](NC(=O)Cc1ccc(OC)cc1)C(C)C)C(=O)N[C@H](C(=O)O)C(C)C [Compound 15, (S)-2-[(2S,3S)-2-((3S,4S)-3-hydroxy-4-{(S)-2-[2-(4-methoxyphenyl)-acetylamino]-3-methylbutyrylamino}-5-phenylpentanoylamino)-3-methylpentanoylamino]-3-methylbutyric acid]
1.6e-07 M | > 30000 nM | CC[C@H](C)[C@H](NC(=O)C[C@H](O)[C@H](Cc1ccccc1)NC(=O)[C@@H](NC(=O)Cc1ccccc1OC)C(C)C)C(=O)N[C@H](C(=O)O)C(C)C [Compound 28, (S)-2-[(2S,3S)-2-((3S,4S)-3-hydroxy-4-{(S)-2-[2-(2-methoxyphenyl)-acetylamino]-3-methylbutyrylamino}-5-phenylpentanoylamino)-3-methylpentanoylamino]-3-methylbutyric acid]
2.6e-10 M |  | CCC[C@H](NC(=O)C[C@H](O)[C@H](Cc1ccccc1)NC(=O)[C@@H](NC(=O)[C@H](CC(C)C)NC(=O)CC(C)C)C(C)C)C(=O)NC(CC)CC [Compound 48, N—[(S)-1-(1-ethylpropylcarbamoyl)butyl]-(3S,4S)-3-hydroxy-4-{(S)-3-methyl-2-[(S)-4-methyl-2-(3-methylbutyrylamino)pentanoylamino]-butyrylamino}-5-phenylpentanamide]
1.6e-07 M |  | CC[C@H](C)[C@H](NC(=O)C[C@H](O)[C@H](Cc1ccccc1)NC(=O)[C@@H](NC(=O)c1cccc(-c2ccccc2)c1)C(C)C)C(=O)N[C@H](C(=O)O)C(C)C [Compound 31, (S)-2-[(2S,3S)-2-((3S,4S)-4-{(S)-2-[(biphenyl-3-carbonyl)amino]-3-methylbutyrylamino}-3-hydroxy-5-phenylpentanoylamino)-3-methylpentanoylamino]-3-methylbutyric acid]
3.1e-07 M |  | CC[C@H](C)[C@H](NC(=O)C[C@H](O)[C@H](Cc1ccccc1)NC(=O)[C@@H](NC(=O)[C@@H](O)c1ccccc1)C(C)C)C(=O)N[C@H](C(=O)O)C(C)C [Compound 37, (S)-2-((2S,3S)-2-{(3S,4S)-3-hydroxy-4-[(S)-2-((S)-2-hydroxy-2-phenylacetylamino)-3-methylbutyrylamino]-5-phenylpentanoylamino}-3-methylpentanoylamino)-3-methylbutyric acid]
1.3e-09 M |  | CCC(CC)NC(=O)[C@@H](NC(=O)C[C@H](O)[C@H](Cc1ccccc1)NC(=O)[C@@H](NC(=O)[C@H](CC(C)C)NC(=O)CC(C)C)C(C)C)[C@@H](C)CC [Compound 42, N-[(1S,2S)-1-(1-ethylpropylcarbamoyl)-2-methylbutyl]-(2S,5S)-3-hydroxy-4-{(S)-3-methyl-2-[(S)-4-methyl-2-(3-methylbutyrylamino)-pentanoylamino]butyrylamino}-5-phenylpentanamide]
1.2e-06 M |  | CC[C@H](C)[C@H](NC(=O)C[C@H](O)[C@H](Cc1ccccc1)NC(=O)[C@@H](NC(=O)Cc1cccc2ccccc12)C(C)C)C(=O)N[C@H](C(=O)OCc1ccccc1)C(C)C [Compound 21, benzly (S)-2-((2S,3S)-2-{(3S,4S)-3-hydroxy-4-[(S)-3-methyl-2-(2-naphthalen-1-ylacetylamino)butyrylamino]-5-phenylpentanoylamino}-3-methylpentanoylamino)-3-methylbutyrate]
4.3e-08 M |  | CCOc1cccc(CC(=O)N[C@H](C(=O)N[C@@H](Cc2ccccc2)[C@@H](O)CC(=O)N[C@H](C(=O)N[C@H](C(=O)O)C(C)C)[C@@H](C)CC)[C@@H](C)CC)c1 [Compound 36, (S)-2-[(2S,3S)-2-((3S,4S)-3-hydroxy-4-{(S)-methyl-1-(S)-2-[2-(3-ethoxyphenyl)acetylamino]-3-oxopentylamino}-5-phenylpentanoylamino)-3-methylpentanoylamino]-3-methylbutyric acid]
1.2e-08 M |  | CC[C@H](C)[C@H](NC(=O)C[C@H](O)[C@H](Cc1ccccc1)NC(=O)[C@@H](NC(=O)Cc1cccc(Oc2ccccc2)c1)C(C)C)C(=O)N[C@H](C(=O)O)C(C)C [Compound 27, (S)-2-[(2S,3S)-2-((3S,4S)-3-hydroxy-4-{(S)-3-methyl-2-[2-(3-phenoxyphenyl)acetylamino]butyrylamino}-5-phenylpentanoylamino)-3-methylpentanoylamino]-3-methylbutyric acid]
